Test results taken from patent US20240238300A1, “TREATMENT METHODS FOR SUBJECTS WITH CANCER HAVING AN ABERRATION IN EGFR AND/OR HER2” (TAIHO PHARMACEUTICAL CO., LTD., priority 2021, published 2024).
One block for each compound: values may come before it.

Key:
[1] = tested on: NCI-N87 human gastric carcinoma (HER2 overexpressing) xenografts; assay: refractory T-mab/P-mab model Step I; assay type: in vivo, male nude mice (BALB/cAJcl-mu/mu)
Method: Male nude mice (BALB/cAJcl-mu/mu) were implanted with NCI-N87 human gastric carcinoma (HER2 overexpressing); 1.0×10^7 cells in 100 μL of PBS were implanted subcutaneously per mouse.

[2] = tested on: NCI-N87 xenografts relapsed from T-DM1; settings: 10 mg/kg/day iv Day 1
Method: Male nude mice (BALB/cAJ1-mu/mu) were implanted with NCI-N87 human gastric carcinoma (HER2 overexpressing); 1.0×10^7 cells in 100 μL of PBS were implanted subcutaneously per mouse.
PO; or treated with an oral suspension of Compound (1) once per day at a dosage of 25 mg/kg/day, PO. The tumor volumes (TV, mm^3) and body weights of the mice were recorded.

[3] = tested on: NCI-N87 tumor fragment #6, clone 3; assay: refractory T-DM1 monoclonal cell line model, comparison to DS-8201a; assay type: in vivo, male mice; settings: single iv dose of 10 mg/kg T-DM1
Method: The obtained cell line was implanted into BALB/cAJcl-mu/nu male mice (8.0×10^6 cells in 100 μL of PBS/mouse, subcutaneous) for the efficacy test.
The tumor volumes (TV, mm) and body weights of the mice were recorded.

[4] = tested on: MDA-MB-175VII cells (DOC4-NRG1 fusion); assay: growth inhibitory effect in NRG1 fusion-driven cancer cell line (GI50); assay type: cell-based; settings: Homo sapiens, mean of 3-4 independent experiments
Method: GI50 values were also determined for currently approved EGFR/HER2 tyrosine kinase inhibitors: afatinib, osimertinib, tucatinib, lapatinib, and neratinib, and one investigational drug (poziotinib). Mean values were determined from 3-4 independent experiments.

SK-BR-3 cells = assay: feedback activation of HER3, downstream targets and apoptosis markers in SK-BR-3 cells; assay type: cell-based, human; settings: for phosphorylation of HER2, HER3, and their downstream targets: 3 hours; for phosphorylation of HER2, HER3, and their downstream targets / BIM and cleaved PARP: 30 to 300 nmol/L; for phosphorylation of HER2, HER3, and their downstream targets (AKT and ERK) / BIM and cleaved PARP: 48 hours
From the text: The effect of Compound (1) on feedback activation of HER3, its downstream targets (ERK and AKT), and apoptosis markers (BIM and cleaved PARP) in SK-BR-3 cells was investigated. In addition, the same information for lapatinib and tucatinib (a reversible inhibitor of HER2) was obtained.

[5] = tested on: NCI-N87 human gastric carcinoma xenografts; assay: antitumor effect in nude mice bearing NCI-N87 xenografts; assay type: in vivo; settings: Day 15
Method: The antitumor effect of Compound (1) was evaluated in nude mice bearing HER2-overexpressing NCI-N87 human gastric carcinoma xenografts. Compound (1) dosing suspensions using 0.5% w/v hydroxypropyl methylcellulose (HPMC) as vehicle were prepared at 4 dose levels (3.1, 6.3, 12.5, and 25.0 mg/kg/day) and administered orally once daily for 14 days. In addition, the antitumor effect of poziotinib, which is a pan-ErbB inhibitor and currently under clinical development for the treatment of cancer with epidermal growth factor receptor containing HER2 exon 20 insertion mutations, was also evaluated using this model. Poziotinib was administered orally once daily for 14 days at 2 dose levels (0.5 or 1.0 mg/kg/day). The control group received 0.5% w/v HPMC once daily for 14 days.

[6] = tested on: MCF10A_HER2/insYVMA_v human mammary epithelial xenografts; assay: antitumor effect in nude mice bearing MCF10A_HER2/insYVMA_v xenografts; assay type: in vivo; settings: Day 15
Method: The antitumor effect of Compound (1) was evaluated in a nude mouse xenograft model of MCF10A_HER2/insYVMA_v. MCF10A_HER2/insYVMA_v was established as stably growing cells in vivo derived from MCF10A HER2/insYVMA (a human mammary epithelial cell line engineered to express the HER2 exon 20 insertion mutation A775_G776insYVMA) xenografts subcutaneously transplanted into nude mice. Compound (1) suspensions (using 0.5% w/v HPMC as vehicle) were administered orally once daily to mice at doses of 7.8, 12.5, or 20.0 mg/kg/day for 14 days. The control group received 0.5% weight per volume (w/v) hydroxypropyl methylcellulose (HPMC) solution orally once daily for 14 days.
In addition, the antitumor effect of poziotinib (an irreversible inhibitor of EGFR, HER2, and HER4) was also evaluated using this model.

[7] = tested on: intracranial NCI-N87-luc human gastric carcinoma xenografts; assay: intracranial antitumor effect, NCI-N87-luc xenografts; assay type: in vivo, nude mice; settings: Day 22
Method: The intracranial antitumor effect of Compound (1) was evaluated using Compound (1) in nude mice intracranially implanted with NCI-N87-luc cells, which were engineered to stably express the luciferase gene using the HER2-overexpressing NCI-N87 human gastric carcinoma cell line. Compound (1) dosing suspensions using 0.5% w/v HPMC as vehicle were prepared with Compound (1) at 3 dose levels (16.0, 20.0, or 25.0 mg/kg/day) and administered PO QD for 21 days. The control group received 0.5% weight per volume (w/v) hydroxypropyl methylcellulose (HPMC) solution orally once daily for 21 days. The antitumor effect of poziotinib was also evaluated using this model. Poziotinib was administered PO QD for 21 days at 2 dose levels (0.5 or 1.0 mg/kg/day).

[8] = Step I Day 22, 20 mg/kg/day (each) ip Days 1, 8, 15

Compound: pertuzumab [P-mab]
RTV (mean ± SE) ([1]; Day 22 to Day 0 (Step I), 20 mg/kg/day (each) ip Days 1, 8, 15): 4.0 | T/C ([1]; Step I Day 22, vs non-treatment control, 20 mg/kg/day (each) ip Days 1, 8, 15): 76.5% | Number of Death [1, 8]: 0 | TV (mean ± SE) [1, 8]: 1233.1 mm^3 | BWC (mean ± SE) ([1]; mouse, in vivo, ip, 20 mg/kg/day): 10.20%

Compound: trastuzumab emtansine [T-DM1]
RTV (mean ± SE) ([2]; Day 22 to Day 1 (Step II)): 1.73 | TV (mean ± SE) ([2]; Step II Day 22): 595.1 mm^3 | T/C ([2]; Step II Day 22, reference group): 100.0% | antitumor effect (tumor volume) [3]: failing to inhibit tumor growth

Compound: CCOc1cc2ncc(C#N)c(Nc3ccc(OCc4ccccn4)c(Cl)c3)c2cc1NC(=O)/C=C/CN(C)C [neratinib]
GI50 [4]: 3 ± 0.6 nM

Compound: C=CC(=O)N1CCC(Oc2cc3c(Nc4ccc(Cl)c(Cl)c4F)ncnc3cc2OC)CC1 [poziotinib, reference compound]
T/C ratio of the mean tumor volumes ([5]; 0.5 mg/kg/day orally once daily 14 days): 44.2% | T/C ratio of the mean tumor volumes ([5]; 1.0 mg/kg/day orally once daily 14 days): 8.8% | T/C ratio of the mean tumor volume ([6]; 0.5 mg/kg/day): 29.0% | T/C ratio of the mean tumor volume ([6]; 1.0 mg/kg/day): 8.3% | T/C ratio of the mean total flux ([7]; 0.5 mg/kg/day PO QD 21 days): 39.0% | mean body weight change (BWC) ([7]; 0.5 mg/kg/day): 2.5% | T/C ratio of the mean total flux ([7]; 1.0 mg/kg/day PO QD 21 days): 21.1% | mean body weight change (BWC) ([7]; 1.0 mg/kg/day): −0.3% | GI50 [4]: 0.3 ± 0.2 nM

Further lines, with some results ahead:

GI50 [4]: 29.4 ± 1.5 nM
Compound: C=CC(=O)Nc1cc(Nc2nccc(-c3cn(C)c4ccccc34)n2)c(OC)cc1N(C)CCN(C)C [osimertinib]

GI50 [4]: 5.6 ± 2.7 nM
Compound: CN(C)C/C=C/C(=O)Nc1cc2c(Nc3ccc(F)c(Cl)c3)ncnc2cc1O[C@H]1CCOC1 [afatinib]

GI50 [4]: 89.5 ± 39.5 nM
Compound: CS(=O)(=O)CCNCc1ccc(-c2ccc3ncnc(Nc4ccc(OCc5cccc(F)c5)c(Cl)c4)c3c2)o1 [lapatinib]
phosphorylation of HER2, HER3, and their downstream targets (SK-BR-3 cells): inhibited the phosphorylation | phosphorylation of HER2, HER3, and their downstream targets (AKT and ERK) (SK-BR-3 cells): increased again | BIM and cleaved PARP (SK-BR-3 cells): increased

GI50 [4]: 27.6 ± 5.5 nM
Compound: Cc1cc(Nc2ncnc3ccc(NC4=NC(C)(C)CO4)cc23)ccc1Oc1ccn2ncnc2c1 [tucatinib]
phosphorylation of HER2, HER3, and their downstream targets (SK-BR-3 cells): inhibited the phosphorylation | phosphorylation of HER2, HER3, and their downstream targets (AKT and ERK) (SK-BR-3 cells): increased again | BIM and cleaved PARP (SK-BR-3 cells): increased
